Results published in ChEMBL document CHEMBL5038595, “Synthesis and Pharmacological Evaluation of Tetrahydro-γ-carboline Derivatives as Potent Anti-inflammatory Agents Targeting Cyclic GMP-AMP Synthase” (J Med Chem, 2021).
The source made the active and inactive calls. The calls are words filed in the database; no cut-off is given here.

Legend:
[1] = Cytotoxicity against mouse RAW-Lucia ISG cells assessed as reduction in cell viability incubated for 24 hrs by CCK-8 assay; format: toxicity, cell-based
[2] = Cytotoxicity against human THP1-Dual cells assessed as reduction in cell viability incubated for 24 hrs by CCK-8 assay; format: toxicity, cell-based
[3] = target: Cyclic GMP-AMP synthase (Homo sapiens, UniProt Q8N884); test: Inhibition of human cGAS expressed in THP1-Dual cells transfected with HT-DNA assessed as suppression of lipofectamine 2000:ds-DNA complex induced activation of cGAS incubated for 1 hr by Quanti-luc reagent based assay; format: cell-based
[4] = target: Cyclic GMP-AMP synthase (Mus musculus, UniProt Q8C6L5); test: Inhibition of mouse cGAS expressed in RAW-Lucia ISG transfected with HT-DNA assessed as suppression of lipofectamine 2000:ds-DNA complex induced activation of cGAS incubated for 1 hr by Quanti-luc reagent based assay; format: cell-based
[5] = target: Stimulator of interferon genes protein (Homo sapiens) (UniProt Q86WV6); test: Inhibition of STING-dependent cGAS activation in cGAMP treated human THP-1-Dual cells assessed as suppression of lipofectamine 2000:cGAMP-induced IRF luciferase expression at 10 uM incubated for 1 hr by Quanti-luc reagent based assay; format: cell-based
Stimulator of interferon genes protein (Homo sapiens), sequence (Q86WV6 whole entry): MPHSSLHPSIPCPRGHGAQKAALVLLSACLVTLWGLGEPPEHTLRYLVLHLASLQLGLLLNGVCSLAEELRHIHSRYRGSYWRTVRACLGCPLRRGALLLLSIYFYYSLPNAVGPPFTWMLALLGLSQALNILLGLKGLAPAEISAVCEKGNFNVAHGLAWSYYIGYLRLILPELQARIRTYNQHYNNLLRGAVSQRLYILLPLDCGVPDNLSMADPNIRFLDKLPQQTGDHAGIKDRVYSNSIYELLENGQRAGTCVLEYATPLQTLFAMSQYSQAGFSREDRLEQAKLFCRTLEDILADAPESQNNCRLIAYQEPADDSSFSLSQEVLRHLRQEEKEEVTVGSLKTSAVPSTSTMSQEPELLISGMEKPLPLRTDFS

Cyclic GMP-AMP synthase (Mus musculus, UniProt Q8C6L5), sequence (Q8C6L5 whole entry): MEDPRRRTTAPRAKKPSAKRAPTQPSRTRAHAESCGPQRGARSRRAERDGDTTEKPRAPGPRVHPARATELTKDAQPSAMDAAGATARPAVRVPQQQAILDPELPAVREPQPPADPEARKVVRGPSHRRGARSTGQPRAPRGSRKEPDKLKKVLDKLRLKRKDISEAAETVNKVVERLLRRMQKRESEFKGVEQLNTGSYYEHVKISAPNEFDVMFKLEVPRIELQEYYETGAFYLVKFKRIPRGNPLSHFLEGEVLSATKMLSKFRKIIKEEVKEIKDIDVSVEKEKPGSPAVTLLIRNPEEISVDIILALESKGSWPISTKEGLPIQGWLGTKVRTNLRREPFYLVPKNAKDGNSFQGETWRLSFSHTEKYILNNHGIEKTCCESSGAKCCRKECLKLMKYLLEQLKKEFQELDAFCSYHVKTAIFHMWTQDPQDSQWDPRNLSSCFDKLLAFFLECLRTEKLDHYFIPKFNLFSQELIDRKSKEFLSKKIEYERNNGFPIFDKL
Cyclic GMP-AMP synthase (Homo sapiens, UniProt Q8N884), sequence (Q8N884 whole entry): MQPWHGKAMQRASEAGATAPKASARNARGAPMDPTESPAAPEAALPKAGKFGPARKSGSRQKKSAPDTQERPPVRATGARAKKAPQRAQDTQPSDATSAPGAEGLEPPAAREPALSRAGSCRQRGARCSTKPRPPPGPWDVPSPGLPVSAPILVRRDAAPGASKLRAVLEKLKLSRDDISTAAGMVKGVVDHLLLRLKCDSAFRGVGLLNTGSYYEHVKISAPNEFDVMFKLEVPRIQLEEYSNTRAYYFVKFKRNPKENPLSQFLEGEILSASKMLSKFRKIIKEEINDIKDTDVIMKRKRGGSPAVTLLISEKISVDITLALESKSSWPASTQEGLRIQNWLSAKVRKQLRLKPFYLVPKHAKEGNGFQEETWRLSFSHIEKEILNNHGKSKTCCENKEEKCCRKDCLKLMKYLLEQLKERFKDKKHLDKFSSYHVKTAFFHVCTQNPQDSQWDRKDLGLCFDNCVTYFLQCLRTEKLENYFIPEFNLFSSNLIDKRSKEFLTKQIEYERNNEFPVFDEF

Row | SMILES | CC50 at 24 h [1] [µM] | CC50 at 24 h [2] [µM] | IC50 [3] [µM] | IC50 [4] [µM] | inhibition [5]
1 | CC(=O)OCC(=O)N1CCC2=Nc3c(ccc(Cl)c3Cl)C2(Nc2cc(C(F)(F)F)cc(C(F)(F)F)c2)C1 (centres undefined) | 7.88 | 11 | 3.23 | 7.94 | 
2 | Cn1ccc(-c2cc(Cl)c(Cl)c3[nH]c4c(c23)CN(C(=O)CNC(=O)CN2CCNCC2)CC4)n1 |  | 37.7 | 7.86 |  | 
3 | O=C(CO)N1CCC2=Nc3c(ccc(Cl)c3Cl)C2(c2c[nH]c3cc(F)cc(F)c23)C1 (centres undefined) |  | 10.4 | 12.9 |  | 
4 | Cn1ccc(-c2cc(Cl)c(Cl)c3[nH]c4c(c23)CN(C(=O)CNC(=O)[C@@H](N)O)CC4)n1 |  | 27.7 | 11 |  | 
5 | Cc1cc(CC(=O)NCC(=O)N2CCc3[nH]c4c(Cl)c(Cl)cc(-c5ccn(C)n5)c4c3C2)no1 | > 50 | > 50 | 9.45 | 9.2 | 
6 | O=C(CO)N1CCC2=Nc3c(ccc(Cl)c3Cl)C2(c2c[nH]c3cc(F)ccc23)C1 (centres undefined) |  | 32.1 | 14.1 |  | 
7 | CC(=O)OCC(=O)N1CCC2Nc3c(ccc(Cl)c3Cl)C2(c2c[nH]c3ccccc23)C1 (centres undefined) | > 50 | 32.9 | 5.49 | 8.75 | 
8 | CC(=O)OCC(=O)N1CCC2=Nc3c(ccc(Cl)c3Cl)C2(Nc2ccccc2C=O)C1 (centres undefined) |  | > 50 | 9.59 |  | 
9 | O=C(CO)N1CCC2=Nc3c(ccc(Cl)c3Cl)C2(Nc2cc(C(F)(F)F)cc(C(F)(F)F)c2)C1 (centres undefined) | 10.6 | 37.3 | 3.12 | 9.56 | Active
10 | CC(=O)OCC(=O)N1CCC2=Nc3c(ccc(Cl)c3Cl)C2(Nc2ccc(C(F)(F)F)cc2C=O)C1 (centres undefined) | > 50 | 10.1 | 2.72 | 9.01 | Active
11 | COc1ccccc1NC12CN(C(=O)CO)CCC1=Nc1c2ccc(Cl)c1Cl (centres undefined) | > 50 | > 50 | > 50 | 22.8 | 
12 | CC(=O)OCC(=O)N1CCC2=Nc3c(ccc(Cl)c3Cl)C2(Nc2cccc(Cl)c2C=O)C1 (centres undefined) | > 50 | 30.8 | 2.87 | 11.1 | 
13 | Cn1ccc(-c2cc(Cl)c(Cl)c3[nH]c4c(c23)CN(C(=O)CNC(=O)[C@@H](N)Cc2cc[nH]n2)CC4)n1 |  | > 50 | 10.2 |  | 
14 | Cn1ccc(-c2cc(Cl)c(Cl)c3[nH]c4c(c23)CN(C(=O)OC(C(F)(F)F)C(F)(F)F)CC4)n1 | 43.3 | 50 | 19.2 | 3.23 | 
15 | O=C(CO)N1CCC2=Nc3c(ccc(Cl)c3Cl)C2(c2c[nH]c3ccccc23)C1 (centres undefined) | > 50 | > 50 | 6.95 | 14.2 | Active
16 | O=C(CO)N1CC=C2Nc3c(ccc(Cl)c3Cl)C2(Cl)C1 (centres undefined) |  | > 50 | > 50 |  | 
17 | O=C(CO)N1CCC2=Nc3c(ccc(Cl)c3Cl)C2(Nc2cc(F)cc(F)c2)C1 (centres undefined) |  | > 50 | > 50 |  | 
18 | Cn1ccc(-c2cc(Cl)c(Cl)c3[nH]c4c(c23)CN(C(=O)C2CC(OC(F)F)C2)CC4)n1 (centres undefined) |  | 20.2 | 20.3 |  | 
19 | CC(=O)OCC(=O)N1CCC2=Nc3c(ccc(Cl)c3Cl)C2(Nc2ccc(Cl)cc2C=O)C1 (centres undefined) | 47.8 | 12.5 | 1.14 | 16.3 | Active
20 | COc1ccc2c(C34CN(C(=O)CO)CCC3=Nc3c4ccc(Cl)c3Cl)c[nH]c2c1 (centres undefined) |  | > 50 | 11.3 |  | 
21 | O=C(CO)N1C[C@H]2[C@H]3O[C@]4(Nc5ccc(Cl)cc53)c3ccc(Cl)c(Cl)c3N[C@]24C1 (racemic) | > 50 | > 50 | 38.2 | 37.6 | 
22 | Cn1ccc(-c2cc(Cl)c(Cl)c3[nH]c4c(c23)CN(C(=O)[C@@H]2CCCN2)CC4)n1 |  | 49.1 | 22.2 |  | 

Row | SMILES | CC50 at 24 h [1] [µM] | CC50 at 24 h [2] [µM] | IC50 [3] [µM] | IC50 [4] [µM] | inhibition [5]
23 | Cn1ccc(-c2cc(Cl)c(Cl)c3[nH]c4c(c23)CN(C(=O)CN)CC4)n1 [listing 1 of 2 here] |  |  |  |  | inactive
24 | CC(=O)NCC(=O)N1CCc2[nH]c3c(Cl)c(Cl)cc(-c4ccn(C)n4)c3c2C1 |  | > 50 | 37.7 |  | 
25 | Cn1ccc(-c2cc(Cl)c(Cl)c3[nH]c4c(c23)CN(C(=O)CNC(=O)C2(N)CC2)CC4)n1 |  | > 50 | 13.5 |  | 
26 | CC(=O)OCC(=O)N1CCC2=Nc3c(ccc(Cl)c3Cl)C2(c2c[nH]c3ccccc23)C1 (centres undefined) | > 50 | 50 | 6.3 | 9.73 | 
27 | O=C(CO)N1C[C@H]2[C@H]3O[C@]4(Nc5ccccc53)c3ccc(Cl)c(Cl)c3N[C@]24C1 (racemic) |  | > 50 | > 50 |  | 
28 | O=C(CO)N1CCC2Nc3c(ccc(Cl)c3Cl)C2(c2c[nH]c3ccccc23)C1 (centres undefined) | 34.9 | 42.8 | 4.07 | 8.42 | inactive
29 | Cn1ccc(-c2cc(Cl)c(Cl)c3[nH]c4c(c23)CN(C(=O)CNC(=O)Cc2ccco2)CC4)n1 | 49.2 | 47.3 | 7.17 | 7.7 | 
30 | CCOC(=O)c1ccc(NC23CN(C(=O)CO)CCC2=Nc2c3ccc(Cl)c2Cl)cc1 (centres undefined) |  | 52.5 | 39.4 |  | 
31 | CNCC(=O)N1CCc2[nH]c3c(Cl)c(Cl)cc(-c4ccn(C)n4)c3c2C1 | > 50 | 42.1 | 6.3 | 21.9 | 
32 | COc1ccc(OC)c2c1NC13CN(C(=O)CO)CCC21Nc1c3ccc(Cl)c1Cl (centres undefined) | > 50 | > 50 | > 50 | 20.1 | 
33 | Cn1ccc(-c2cc(Cl)c(Cl)c3[nH]c4c(c23)CN(C(=O)C2(N)COC2)CC4)n1 |  | > 50 | > 50 |  | 
34 | Cc1ccc(OC(F)(F)C(=O)NCC(=O)N2CCc3[nH]c4c(Cl)c(Cl)cc(-c5ccn(C)n5)c4c3C2)cc1 | > 50 | > 50 | 15.5 | 6.69 | 
35 | Cn1ccc(-c2cc(Cl)c(Cl)c3[nH]c4c(c23)CN(C(=O)C2CC(O)C2)CC4)n1 (centres undefined) |  | > 50 | > 50 |  | 
36 | Cn1ccc(-c2cc(Cl)c(Cl)c3[nH]c4c(c23)CN(C(=O)CN)CC4)n1 [listing 2 of 2 here] | 23.4 | 32.2 | 1.87 | 10.9 | 
37 | CN(C)CC(=O)N1CCc2[nH]c3c(Cl)c(Cl)cc(-c4ccn(C)n4)c3c2C1 |  | 30.4 | 21 |  | 
38 | Cn1ccc(-c2cc(Cl)c(Cl)c3[nH]c4c(c23)CN(C(=O)CNC(=O)C2=C[C@H](O)[C@H](O)[C@@H](O)C2)CC4)n1 |  | > 50 | > 50 |  | 
39 | Cn1ccc(-c2cc(Cl)c(Cl)c3[nH]c4c(c23)CN(C(=O)CNC(=O)C2CC(F)(F)CN2)CC4)n1 (single isomer, unassigned) | 36.5 | > 50 | 6.4 | 17.4 | 
40 | Cn1ccc(-c2cc(Cl)c(Cl)c3[nH]c4c(c23)CN(C(=O)CNC(=O)C(C)(C)N)CC4)n1 |  | 12.3 | 10.5 |  | 
41 | Cn1ccc(-c2cc(Cl)c(Cl)c3[nH]c4c(c23)CN(C(=O)CN2CCOCC2)CC4)n1 |  | > 50 | > 50 |  | 
42 | Cn1ccc(-c2cc(Cl)c(Cl)c3[nH]c4c(c23)CN(C(=O)CNC(=O)C(C)(C)NC(=O)OC(C)(C)C)CC4)n1 |  | 49.2 | 8.21 |  | 
43 | Cn1ccc(-c2cc(Cl)c(Cl)c3[nH]c4c(c23)CN(C(=O)CNC(=O)c2cccc(-c3noc(C(F)(F)F)n3)c2)CC4)n1 | > 50 | > 50 | 10 | 7.62 | 
44 | O=C(CO)N1CCC2=Nc3c(ccc(Cl)c3Cl)C2(c2c[nH]c3cc(Cl)ccc23)C1 (centres undefined) | 10 | 24.4 | 8.59 | 22 | 
